The text below walks through data of US20250144067A1, “PERSONALIZED STARVATION THERAPY FOR CANCER” (Faeth Therapeutics, Inc., priority 2021, published 2025).

Where a name gives a salt, the structure may show the parent alone. Read-outs that look alike come from different tables or passages of the source.

Assay [1] deals with NCI-H292 lung cancer cells. The assay is described as follows: FDA drug screening, complete media vs cholesterol-free media without statin (TABLE 1). The class given is cell-based, human.
Assay [2] has as its system NCI-H292 lung cancer cells. In words: FDA drug screening, complete media vs cholesterol-free media with simvastatin (TABLE 2). The class given is cell-based, human.
Where [3] appears, read: Complete minus Cholesterol-free, >0 enhanced anti-cancer activity, about 0 neutral, <0 antagonist.
[4] abbreviates: NCI-H292 cells, cholesterol-free media without statin.
[5] abbreviates: NCI-H292 cells, FDA drug library screen, cholesterol-free media with simvastatin 0.04 μM.
[6] abbreviates: NCI-H292 cells, FDA drug library screen, complete media.
Setting [7] is: complete media minus cholesterol-free media + simvastatin, >0 enhanced anti-cancer activity, about 0 neutral, <0 antagonist.
The mark [8] stands for this setting: NCI-H292 cells, cholesterol-free media without statin, FDA drug library screen.
Setting [9] is: NCI-H292 cells, complete media, FDA drug library screen.
The mark [10] stands for this setting: complete vs cholesterol-free media, >0 enhanced anti-cancer activity, about 0 neutral, <0 antagonist.
The mark [11] stands for this setting: NCI-H292 cells, cholesterol-free media with simvastatin 0.04 μM, cell growth value in FDA drug screen.
The mark [12] stands for this setting: NCI-H292 cells, complete media, cell growth value in FDA drug screen.
Setting [13] is: Complete minus Cholesterol-free, greater than 0 enhanced anti-cancer activity, about 0 neutral, below 0 antagonist.
Setting [14] is: NCI-H292 cells, FDA drug library screen, cholesterol-free media without statin.
The mark [15] stands for this setting: NCI-H292 cells, cholesterol-free media with simvastatin 0.04 μM, FDA drug library screen (TABLE 2).
The mark [16] stands for this setting: NCI-H292 cells, complete media, FDA drug library screen (TABLE 2).
[17] abbreviates: complete media minus cholesterol-free media + simvastatin (0.04 μM), >0 enhanced anti-cancer activity, about 0 neutral, <0 antagonist.
Where [18] appears, read: NCI-H292 cells, drug in cholesterol-free media with simvastatin 0.04 μM.
Where [19] appears, read: NCI-H292 cells, drug in complete media.
The mark [20] stands for this setting: complete media vs cholesterol-free media + simvastatin (0.04 μM), >0 enhanced anti-cancer activity, about 0 neutral, <0 antagonist.
Setting [21] is: complete vs cholesterol-free media, greater than 0 enhanced anti-cancer activity, about 0 neutral, below 0 antagonists.
[22] abbreviates: NCI-H292 cells, FDA library drug in cholesterol-free media with simvastatin 0.04 μM.
The mark [23] stands for this setting: NCI-H292 cells, FDA library drug in complete media.
Setting [24] is: complete vs cholesterol-free media, […].

On to `O=P(O)(O)C(O)(Cn1ccnc1)P(=O)(O)O` [Zoledronic acid (monohydrate)], for which the Difference in assay [1] (setting [3]) is reported as −0.23; in assay [2] (setting [7]), 0.17. The compound also displayed a Cholesterol-free in assay [1] (setting [4]) of 1.033. Further, the Complete in assay [1] (NCI-H292 cells, complete media) amounted to 0.8069. In assay [2] (setting [5]), the “Cholesterol-free media + simvastatin (0.04 μM)” value is on record as 0.7262. The “Complete Media” value in assay [2] (setting [6]) is 0.8945.
`CC(C)N(CCCCOCC(=O)NS(C)(=O)=O)c1cnc(-c2ccccc2)c(-c2ccccc2)n1` [Selexipag]: the Cholesterol-free in assay [1] (setting [8]) was found to be 0.7206. Besides, the Complete in assay [1] (setting [9]) is recorded as 1.028. The Difference in assay [1] (setting [10]) is 0.31; in assay [2] (setting [7]) it was 0.08. Moreover, in assay [2] (setting [11]), the “Cholesterol-free media + simvastatin (0.04 μM)” value is given as 0.9295. Besides, the “Complete Media” value in assay [2] (setting [12]) is 1.013.
In the case of Azatadine (dimaleate), the Difference in assay [1] (setting [13]) was −0.16; in assay [2] (setting [17]), −0.04. Moreover, in assay [1] (setting [14]), the Cholesterol-free is reported as 1.286. The compound also yielded a Complete in assay [1] (setting [6]) of 1.13. Further, the “Cholesterol-free media + simvastatin (0.04 μM)” value in assay [2] (setting [15]) came to 1.086. In assay [2] (setting [16]), the “Complete Media” value is reported as 1.047.
For `COC(=O)[C@@H]1CC2=CC(=O)CC[C@]2(C)[C@@]23O[C@@H]2C[C@@]2(C)[C@@H](CC[C@@]24CCC(=O)O4)[C@H]13` [Eplerenone], the Cholesterol-free in assay [1] (setting [8]) is given as 1.018. In assay [1] (setting [9]), the Complete is 1.291. The Difference was 0.27 in assay [1] (setting [10]) and −0.19 in assay [2] (setting [20]). Further, the “Cholesterol-free media + simvastatin (0.04 μM)” value in assay [2] (setting [18]) stood at 1.039. In addition, the “Complete Media” value in assay [2] (setting [19]) is 0.8449.
Compound `CCCCC[C@H](O)/C=C/[C@@H]1[C@@H](C/C=C\CCCC(=O)O)[C@@H](O)C[C@H]1O.NC(CO)(CO)CO` [Dinoprost (tromethamine salt)] came in with a Cholesterol-free in assay [1] (setting [4]) of 1.291. The Complete in assay [1] (NCI-H292 cells, complete media) was 0.9605. In addition, the Difference in assay [1] (setting [21]) is −0.33; in assay [2] (setting [20]) it was −0.59. Besides, the “Cholesterol-free media + simvastatin (0.04 μM)” value in assay [2] (setting [22]) turned out to be 1.671. The “Complete Media” value in assay [2] (setting [23]) was 1.083.
On to Merbromin, for which the Cholesterol-free in assay [1] (setting [8]) came to 1.294. Moreover, the Complete in assay [1] (setting [9]) was determined as 1.544. For the same compound, the Difference in assay [1] (setting [24]) was 0.25; in assay [2] (complete media minus cholesterol-free media + simvastatin (0.04 μM), […]) it was −0.02. Moreover, in assay [2] (setting [15]), the “Cholesterol-free media + simvastatin (0.04 μM)” value is 1.023. Also, in assay [2] (setting [16]), the “Complete Media” value is reported as 1.006.
Turning to Doxazosin (mesylate), the Difference was −0.61 in assay [1] (Complete minus Cholesterol-free, greater than 0 enhanced anti-cancer activity, about 0 neutral, below 0 antagonists) and −0.34 in assay [2] (setting [20]). This compound also gave a Cholesterol-free in assay [1] (NCI-H292 cells in cholesterol-free media without statin) of 1.69. Besides, the Complete in assay [1] (NCI-H292 cells in complete media) came out at 1.083. The “Cholesterol-free media + simvastatin (0.04 μM)” value in assay [2] (setting [22]) is recorded as 1.325. In assay [2] (setting [23]), the “Complete Media” value is recorded as 0.9839.
`Cc1ncc(OC[C@@]2(c3cccc(F)c3)C[C@H]2C(=O)Nc2ccc(F)cn2)c(C)n1` [Lemborexant] showed a Cholesterol-free in assay [1] (setting [4]) of 1.55. Also, the Complete in assay [1] (NCI-H292 cells, complete media) is on record as 1.207. In addition, the Difference is reported as −0.34 in assay [1] (setting [24]) and −0.15 in assay [2] (complete media vs cholesterol-free media + simvastatin (0.04 μM), […]). The “Cholesterol-free media + simvastatin (0.04 μM)” value in assay [2] (setting [5]) came to 1.185. Besides, the “Complete Media” value in assay [2] (setting [6]) was 1.038.
Regarding `Nc1c2ccccc2nc2ccccc12` [9-Aminoacridine], the results for the Difference in assay [1] (setting [3]) and in assay [2] (setting [7]) were −0.03 and 0.20, respectively. Moreover, the Cholesterol-free in assay [1] (setting [8]) is on record as 0.5968. For the same compound, the Complete in assay [1] (setting [9]) was found to be 0.5645. The “Cholesterol-free media + simvastatin (0.04 μM)” value in assay [2] (setting [5]) was found to be 0.3257. For the same compound, the “Complete Media” value in assay [2] (setting [6]) came out at 0.5257.
On to `CC1CC(OC(=O)C(O)c2ccccc2)CC(C)(C)C1` (centres unmarked) [Cyclandelate], for which the values for the Difference in assay [1] (setting [3]) and in assay [2] (setting [20]) were −0.23 and −0.22, respectively. For the same compound, the Cholesterol-free in assay [1] (setting [4]) came to 1.162. The Complete in assay [1] (NCI-H292 cells, complete media) is recorded as 0.935. Moreover, the “Cholesterol-free media + simvastatin (0.04 μM)” value in assay [2] (setting [18]) is 1.188. Further, in assay [2] (setting [19]), the “Complete Media” value turned out to be 0.9668.
`CC1=CC(=O)c2ccccc2C1=O` [Menadione]: in assay [1] (setting [8]), the Cholesterol-free is recorded as 0.7683. In assay [1] (setting [9]), the Complete was 1.342. For the same compound, the values for the Difference in assay [1] (setting [10]) and in assay [2] (setting [17]) were 0.57 and −0.05, respectively. Also, the “Cholesterol-free media + simvastatin (0.04 μM)” value in assay [2] (setting [15]) is reported as 1.102. Also, the “Complete Media” value in assay [2] (setting [16]) is recorded as 1.055.
Consider `Brc1c(NC2=NCCN2)ccc2nccnc12` [Brimonidine], for which the Difference in assay [1] (setting [3]) is reported as −0.01; in assay [2] (setting [20]), −0.17. Further, in assay [1] (setting [8]), the Cholesterol-free is on record as 0.9724. The compound further had a Complete in assay [1] (setting [9]) of 0.9659. Besides, the “Cholesterol-free media + simvastatin (0.04 μM)” value in assay [2] (setting [18]) is reported as 0.9016. The “Complete Media” value in assay [2] (setting [19]) was determined as 0.7279.
In assay [1] (setting [4]), `CC(C(=O)O)c1cccc(C(=O)c2ccccc2)c1` (centres unmarked) [Ketoprofen] gave a Cholesterol-free of 1.284. For the same compound, the Complete in assay [1] (NCI-H292 cells, complete media) is listed as 0.8938. The Difference in assay [1] (setting [21]) is on record as −0.39; in assay [2] (setting [7]), 0.02. In addition, in assay [2] (setting [11]), the “Cholesterol-free media + simvastatin (0.04 μM)” value amounted to 0.9565. The “Complete Media” value in assay [2] (setting [12]) is 0.9752.
`CCN(CC)Cc1cc(Nc2ccnc3cc(Cl)ccc23)ccc1O` [Amodiaquine (dihydrochloride dihydrate)] returned a Cholesterol-free in assay [1] (setting [8]) of 0.9158. The compound further had a Complete in assay [1] (setting [9]) of 1.353. Further, the Difference in assay [1] (setting [10]) is 0.44; in assay [2] (setting [7]), 0.40. Further, in assay [2] (setting [5]), the “Cholesterol-free media + simvastatin (0.04 μM)” value was determined as 1.209. The “Complete Media” value in assay [2] (setting [6]) amounted to 1.606.
For the compound `O=C1O[C@H]([C@@H](O)CO)C(O)=C1O` [L-Ascorbic acid (sodium salt)], the Difference in assay [1] (setting [13]) is on record as −0.14; in assay [2] (setting [17]), −0.06. This compound also gave a Cholesterol-free in assay [1] (setting [14]) of 0.9664. In assay [1] (setting [6]), the Complete came to 0.8232. For the same compound, the “Cholesterol-free media + simvastatin (0.04 μM)” value in assay [2] (setting [15]) is on record as 0.9802. In assay [2] (setting [16]), the “Complete Media” value is on record as 0.9199.
Regarding `C[N+]1(CC2CC2)[C@@H]2C[C@@H](OC(=O)[C@H](CO)c3ccccc3)C[C@H]1[C@@H]1O[C@@H]12.[Br-]` (some centres unmarked) [Cimetropium (Bromide)], in assay [1], the Cholesterol-free is given as 0.8786, the Complete worked out at 0.8182 and the Difference was −0.06. In assay [2], the “Cholesterol-free media + simvastatin (0.04 μM)” value amounted to 1.704, the “Complete Media” value turned out to be 1.429 and the Difference is −0.28.
Consider `CCCCCCCCCCCCCCCCCC(=O)O` [Stearic acid], for which the results for the Difference in assay [1] (setting [13]) and in assay [2] (setting [17]) were −0.14 and −1.08, respectively. The Cholesterol-free in assay [1] (setting [14]) is on record as 1.159. Besides, the Complete in assay [1] (setting [6]) turned out to be 1.022. Further, the “Cholesterol-free media + simvastatin (0.04 μM)” value in assay [2] (setting [5]) stood at 1.741.
Compound `NC(CO)(CO)CO.O=C(c1ccccc1)c1ccc2n1CCC2C(=O)O` (centres unmarked) [Ketorolac (tromethamine salt)] gave a Cholesterol-free in assay [1] (setting [4]) of 1.112. This compound displayed a Complete in assay [1] (NCI-H292 cells, complete media) of 0.6871. Besides, the results for the Difference in assay [1] (setting [21]) and in assay [2] (setting [20]) were −0.42 and −0.17, respectively. For the same compound, the “Cholesterol-free media + simvastatin (0.04 μM)” value in assay [2] (setting [18]) amounted to 1.289. The “Complete Media” value in assay [2] (setting [19]) came to 1.116.
With `CCc1ccc(CCOc2ccc(CC3SC(=O)NC3=O)cc2)nc1` (centres unmarked) [Pioglitazone (hydrochloride)], the values for the Difference in assay [1] (setting [3]) and in assay [2] (setting [20]) were −0.30 and −0.25, respectively. Also, in assay [1] (setting [4]), the Cholesterol-free is given as 1.265. In assay [1] (NCI-H292 cells, complete media), this compound had a Complete of 0.9669. Also, the “Cholesterol-free media + simvastatin (0.04 μM)” value in assay [2] (setting [18]) is listed as 1.247. In addition, the “Complete Media” value in assay [2] (setting [19]) is 1.002.
